Experimental data as given in ChEMBL document CHEMBL4665885, “Structural Basis of Nanomolar Inhibition of Tumor-Associated Carbonic Anhydrase IX: X-Ray Crystallographic and Inhibition Study of Lipophilic Inhibitors with Acetazolamide Backbone” (J Med Chem, 2020).

Key:
Carbonic anhydrase 1 = Carbonic anhydrase 1 (Homo sapiens, UniProt P00915); test: Inhibition of recombinant human CA1 expressed in Escherichia coli BL21 preincubated for 15 mins by phenol red dye-based stopped-flow CO2 hydration assay
Chain of Carbonic anhydrase 1 (P00915 whole entry): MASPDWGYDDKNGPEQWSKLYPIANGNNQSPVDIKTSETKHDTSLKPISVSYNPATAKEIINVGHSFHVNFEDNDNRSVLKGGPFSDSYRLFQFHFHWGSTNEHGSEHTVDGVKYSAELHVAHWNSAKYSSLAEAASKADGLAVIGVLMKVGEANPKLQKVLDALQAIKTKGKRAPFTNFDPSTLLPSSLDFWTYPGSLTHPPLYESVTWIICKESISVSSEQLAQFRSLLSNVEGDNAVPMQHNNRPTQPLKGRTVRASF

Carbonic anhydrase 9 = Carbonic anhydrase 9 (Homo sapiens, UniProt Q16790); test: Inhibition of recombinant human CA9 expressed in Escherichia coli BL21 preincubated for 15 mins by phenol red dye-based stopped-flow CO2 hydration assay

| Ki (Carbonic anhydrase 1) [nM] | Ki (Carbonic anhydrase 9) [nM] | SMILES |
| --- | --- | --- |
| 62.8 | 15.7 | NS(=O)(=O)c1nnc(NC(=O)C2CCCCC2)s1 |
| 53.8 | 2.1 | CCCC(=O)Nc1nnc(S(N)(=O)=O)s1 |
| 75.1 | 2.4 | CC(C)C(=O)Nc1nnc(S(N)(=O)=O)s1 |
| 63.4 | 8.2 | CC(C)(C)C(=O)Nc1nnc(S(N)(=O)=O)s1 |
|  | 12.8 | CCC(=O)Nc1nnc(S(N)(=O)=O)s1 [PROPAZOLAMIDE] |
